Source: patent EP3641735B1, “PHARMACEUTICAL TABLET COMPOSITION COMPRISING BILASTINE FORM 3 AND A WATER-SOLUBLE FILLER” (Alfred E. Tiefenbacher (GmbH & Co. KG), priority 2017, dated 2019)

Columns and labels:
[1] = neat forms; 1 month at 25°C/60%RH and at 40°C/75%RH; cited from earlier work
[2] = Polymorphic analysis of API by XRD before and after micronisation (jet milling); type: physicochemical
Description: For example, two from five batches of micronized API have shown the contamination of form 2 with form 3 and dihydrate form A.

Compound | polymorphic stability on storage [1] | polymorphic form of API after micronisation (XRD) ([2]; listed as polymorphic form 2) | polymorphic form of API after micronisation (XRD) ([2]; listed as Bilastine form 3)
CCOCCn1c(C2CCN(CCc3ccc(C(C)(C)C(=O)O)cc3)CC2)nc2ccccc21 [Alpha, 2-[4-(2-(4-(1-(2-ethoxyethyl)-1H-benzimidazol-2-yl)piperidin-1-yl)ethyl)phenyl]-2-methylpropionic acid] | stable on storage |  | 
CCOCCn1c(C2CCN(CCc3ccc(C(C)(C)C(=O)O)cc3)CC2)nc2ccccc21 [Eta, 2-[4-(2-(4-(1-(2-ethoxyethyl)-1H-benzimidazol-2-yl)piperidin-1-yl)ethyl)phenyl]-2-methylpropionic acid] | stable on storage |  | 
CCOCCn1c(C2CCN(CCc3ccc(C(C)(C)C(=O)O)cc3)CC2)nc2ccccc21 [form 1, 2-[4-(2-(4-(1-(2-ethoxyethyl)-1H-benzimidazol-2-yl)piperidin-1-yl)ethyl)phenyl]-2-methylpropionic acid] | stable on storage |  | 
CCOCCn1c(C2CCN(CCc3ccc(C(C)(C)C(=O)O)cc3)CC2)nc2ccccc21 [form 2, 2-[4-(2-(4-(1-(2-ethoxyethyl)-1H-benzimidazol-2-yl)piperidin-1-yl)ethyl)phenyl]-2-methylpropionic acid] | stable on storage | presence of form 3 and dihydrate form A as polymorphic impurities | 
CCOCCn1c(C2CCN(CCc3ccc(C(C)(C)C(=O)O)cc3)CC2)nc2ccccc21 [form 3, 2-[4-(2-(4-(1-(2-ethoxyethyl)-1H-benzimidazol-2-yl)piperidin-1-yl)ethyl)phenyl]-2-methylpropionic acid] | converted partially into the form 1 |  | remains in the polymorphic form 3 without changes
